Patent US10023593B2, “ALK kinase inhibitor, and preparation method and uses thereof” (BEIJING PEARL BIOTECHNOLOGY LIMITED LIABILITY COMPANY, priority 2014, dated 2018)

Experiments:
NCI-H2228 cell line = assay: CellTiter-Glo cell proliferation inhibition on NCI-H2228 cell line; type: cell-based; details: Homo sapiens, 96 h, NCI-H2228 cells, 5000 cells/well, 4 days drug treatment
Method in brief: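 NCI-H2228 cells, 5000/well in RPMI-1640 + 10% FBS, treated with compounds 2 h after seeding (0.5% DMSO final) for 4 days at 37° C. Viability by CellTiter-Glo luminescence; inhibition relative to DMSO control, IC50 from curve fit.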

cytochrome P450 2C19 = cytochrome P450 2C19 (Homo sapiens, UniProt P33261); assay: Inhibitory activity on cytochrome P450 2C19; type: in vitro ADME; details: no significant inhibition
Karpas-299 cell line = assay: CellTiter-Glo cell proliferation inhibition on Karpas-299 cell line; type: cell-based; details: Homo sapiens, 96 h, Karpas-299 cells, 5000 cells/well, 4 days drug treatment
Procedure: 4. Cell Proliferation Inhibitory Activities of the Compounds of the Present Invention on Karpas-299 Cell Line
? experimental method ? CellTiter-Glo® Luminescent Cell Viability Assay kit from Promega company was used to detect cell proliferation inhibitory activities of the compounds on Karpas-299 cell line.
? instrument ? Envision 2104 plate reader from PerKinElmer company; Vi-Cell XR cell counter from Beckman Counter company; MCO-18AIC CO2 incubator from SANYO company.
? experiment material ? CellTiter-Glo® Luminescent Cell Viability Assay Kit (Promega company, catalog No. G7573); Karpas-299 cell line (DSMZ, catalog No. ACC31); RPMI-1640 medium (HyClone company, catalog No. SH30809.01B); fetal bovine serum (FBS) (Gibco company, catalog No. 10099-141); PBS (HyClone company, catalog No. SH30256.01B); 96 wells cell culture plate (Corning company, catalog No. 3610); DMSO (AMRESCO company, catalog No. 0231); 96 wells plates (for diluting compounds) (CITOTEST company, catalog No. Ref36020096D);
? experimental condition ? Karpas-299 cells in exponential growth phase were collected and viable cells were counted by Vi-Cell XR cell counter. Cell suspension was adjusted to 62500 cells/ml with culture medium (RPMI-1640+10% FBS). 80 μl cell suspension was added into each well of 96 wells cell culture plate so that so that the final cell number of Karpas-299 cells was 5000 cells/well. The cells were cultivated in an incubator with an atmosphere of 37° C., 5% CO2 and 95% humidity for 2 hours and then each well was added with 20 μl compounds in RPMI-1640 medium solution (the final concentration of DMSO was 0.5%). 4 days after drug treatment, each well was added with 50 μl CellTiter-Glo solution which was previously thawed and equilibrated to room temperature, and mixed for 2 minutes with microplate shaker. After placing at room temperature for 10 minutes, luminescence reading value was measured with PerkinElmer Envision 2104 plate reader and the data was analyzed.
? tested samples ? Compounds of the examples.
Luminescence value of DMSO solvent control (Vvehicle control, which is the mean luminescence value from DMSO solvent control group)
Tested luminescence value (Vsample, which is the luminescence value from given concentration of compounds group) Inhibition rate (%)=(1−Vsample/Vvehicle control)×100
? data processing ? IC50 of compounds was calculated by using XLfit program in Excel.

cytochrome P450 1A2 = target: T1, cytochrome P450 1A2 (Homo sapiens, UniProt P05177); assay: Inhibitory activity on cytochrome P450 1A2; type: in vitro ADME; details: no significant inhibition
T1 sequence (P05177 1-516): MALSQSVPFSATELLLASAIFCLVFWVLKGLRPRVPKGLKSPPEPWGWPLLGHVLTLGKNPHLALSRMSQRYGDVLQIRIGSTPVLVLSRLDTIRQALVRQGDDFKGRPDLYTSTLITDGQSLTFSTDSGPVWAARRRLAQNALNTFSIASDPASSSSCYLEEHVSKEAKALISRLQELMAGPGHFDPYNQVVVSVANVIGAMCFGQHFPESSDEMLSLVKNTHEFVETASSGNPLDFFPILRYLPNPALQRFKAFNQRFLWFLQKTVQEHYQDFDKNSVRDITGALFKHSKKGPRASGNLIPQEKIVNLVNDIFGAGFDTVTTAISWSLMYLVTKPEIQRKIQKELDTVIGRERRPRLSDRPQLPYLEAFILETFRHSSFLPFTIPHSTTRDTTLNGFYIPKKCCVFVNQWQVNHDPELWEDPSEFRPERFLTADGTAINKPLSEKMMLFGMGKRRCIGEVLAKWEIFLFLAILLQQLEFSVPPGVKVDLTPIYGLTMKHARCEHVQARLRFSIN

cytochrome P450 2D6 = cytochrome P450 2D6 (Homo sapiens, UniProt P10635); assay: Inhibitory activity on cytochrome P450 2D6; type: in vitro ADME; details: no significant inhibition
cytochrome P450 2C9 = cytochrome P450 2C9 (Homo sapiens, UniProt P11712); assay: Inhibitory activity on cytochrome P450 2C9; type: in vitro ADME; details: no significant inhibition
cytochrome P450 3A4 = cytochrome P450 3A4 (Homo sapiens, UniProt P08684); assay: Inhibitory activity on cytochrome P450 3A4; type: in vitro ADME; details: no significant inhibition
Sequence of cytochrome P450 3A4 (P08684 whole entry): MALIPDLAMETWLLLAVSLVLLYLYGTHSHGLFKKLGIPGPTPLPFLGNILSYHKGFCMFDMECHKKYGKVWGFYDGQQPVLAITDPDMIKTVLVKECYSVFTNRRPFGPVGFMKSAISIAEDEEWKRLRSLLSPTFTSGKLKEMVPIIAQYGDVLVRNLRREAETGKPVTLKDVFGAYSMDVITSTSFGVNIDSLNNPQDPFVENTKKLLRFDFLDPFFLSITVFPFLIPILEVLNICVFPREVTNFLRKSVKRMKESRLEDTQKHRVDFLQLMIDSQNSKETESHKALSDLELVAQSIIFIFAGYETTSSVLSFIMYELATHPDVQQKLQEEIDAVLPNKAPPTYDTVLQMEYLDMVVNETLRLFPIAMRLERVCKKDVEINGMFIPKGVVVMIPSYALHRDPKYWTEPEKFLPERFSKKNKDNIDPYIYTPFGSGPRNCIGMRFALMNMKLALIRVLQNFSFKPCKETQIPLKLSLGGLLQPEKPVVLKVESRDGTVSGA

Sequence of cytochrome P450 2C9 (P11712 whole entry): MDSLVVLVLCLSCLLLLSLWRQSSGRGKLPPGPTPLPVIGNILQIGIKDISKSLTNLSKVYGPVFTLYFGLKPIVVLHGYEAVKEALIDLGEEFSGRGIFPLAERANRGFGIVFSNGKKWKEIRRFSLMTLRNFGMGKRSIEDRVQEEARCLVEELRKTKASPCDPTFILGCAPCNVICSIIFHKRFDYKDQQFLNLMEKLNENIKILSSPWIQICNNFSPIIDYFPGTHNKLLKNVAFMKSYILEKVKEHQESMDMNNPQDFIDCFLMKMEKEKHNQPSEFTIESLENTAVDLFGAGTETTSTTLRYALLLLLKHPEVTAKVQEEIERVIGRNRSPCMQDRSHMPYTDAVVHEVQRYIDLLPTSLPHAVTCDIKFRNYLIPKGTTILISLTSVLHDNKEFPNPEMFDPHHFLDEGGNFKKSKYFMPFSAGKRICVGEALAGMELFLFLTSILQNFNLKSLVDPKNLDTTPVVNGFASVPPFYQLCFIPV
Sequence of cytochrome P450 2C19 (P33261 whole entry): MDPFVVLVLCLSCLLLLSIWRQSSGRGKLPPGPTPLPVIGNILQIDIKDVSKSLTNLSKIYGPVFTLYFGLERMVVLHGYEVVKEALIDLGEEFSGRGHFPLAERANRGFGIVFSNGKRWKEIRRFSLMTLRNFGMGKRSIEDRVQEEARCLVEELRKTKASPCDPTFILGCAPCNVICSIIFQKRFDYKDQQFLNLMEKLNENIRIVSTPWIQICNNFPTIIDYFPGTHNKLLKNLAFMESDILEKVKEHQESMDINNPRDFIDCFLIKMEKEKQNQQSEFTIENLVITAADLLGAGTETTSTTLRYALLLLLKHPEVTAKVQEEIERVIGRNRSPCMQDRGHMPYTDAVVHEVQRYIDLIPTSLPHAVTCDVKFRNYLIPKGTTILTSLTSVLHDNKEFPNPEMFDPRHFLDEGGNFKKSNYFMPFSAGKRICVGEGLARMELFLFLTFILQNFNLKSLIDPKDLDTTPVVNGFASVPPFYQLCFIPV
Sequence of cytochrome P450 2D6 (P10635 whole entry): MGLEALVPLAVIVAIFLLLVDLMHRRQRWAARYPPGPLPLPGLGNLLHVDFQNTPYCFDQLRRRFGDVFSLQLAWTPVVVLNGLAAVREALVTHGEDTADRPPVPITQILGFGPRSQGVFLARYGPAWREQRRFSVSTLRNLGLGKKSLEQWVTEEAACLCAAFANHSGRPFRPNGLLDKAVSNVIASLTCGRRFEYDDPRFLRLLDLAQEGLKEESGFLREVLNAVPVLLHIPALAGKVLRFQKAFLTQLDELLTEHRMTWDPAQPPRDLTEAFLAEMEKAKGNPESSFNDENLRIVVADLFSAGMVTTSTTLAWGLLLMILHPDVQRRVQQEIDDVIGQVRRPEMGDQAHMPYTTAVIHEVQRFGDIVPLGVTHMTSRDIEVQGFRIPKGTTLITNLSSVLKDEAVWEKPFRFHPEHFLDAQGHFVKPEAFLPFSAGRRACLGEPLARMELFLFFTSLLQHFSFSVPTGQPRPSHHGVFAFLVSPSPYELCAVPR

Q: What does the source list for `CCN1CCC(c2cc(OC3CC3)c(Nc3ncc(Cl)c(Nc4cn(C)nc4S(=O)(=O)C(C)C)n3)cc2C)CC1` [Final product 114, 5-chloro-N^2-[2-cyclopropoxy-4-(1-ethylpiperidin-4-yl)-5-methylphenyl]-N^4-[1-methyl-3-(isopropylsulfonyl)-1H-pyrazol-4-yl]-pyrimidin-2,4-diamine]?
A: IC50 (NCI-H2228 cell line): 70 nM; IC50 (cytochrome P450 2C19): > 10 µM; IC50 (Karpas-299 cell line): 10 nM; IC50 (cytochrome P450 1A2): > 10 µM; IC50 (cytochrome P450 2D6): > 10 µM; IC50 (cytochrome P450 2C9): > 10 µM; IC50 (cytochrome P450 3A4): > 10 µM
